Reference: patent US20110152093A1, “Herbicidal compositions comprising flufenacet” (Bayer CropScience AG, priority 2009, published 2011)

Columns and labels:
Assay type in all cases: in vivo
POAAN (Poa annua) = test: Post-emergence (PO) action against weeds, greenhouse trial, test method 2; conditions: PO application; g of AS/ha: (A) 240, (B) 1200, (C) 140, (A)+(B)+(C) 240 + 1200 + 140
Procedure: (§1) In the standard design of the test, seeds of various broad-leaved weed and weed grass biotypes (origins) were sown in a 8-13 cm diameter pot filled with natural soil of a standard field soil (loamy silt; non-sterile) and covered with a covering soil layer of about 1 cm. The pots were then cultivated in a greenhouse (12-16 h of light, temperature day 20-22° C., night 15-18° C.) until the time of application. The pots were treated on a laboratory track sprayer with spray liquors comprising the compositions according to the invention, mixtures of the prior art or components used individually. Application of the active compounds or active compound combinations formulated as WG, WP, EC or otherwise was carried out at the appropriate growth stages of the plants. The application rate for the spray application was 100-600 l of water/ha. After the treatment, the plants were returned to the greenhouses.
(§2) About 3 weeks after the application, the soil action or/and foliar action was assessed visually according to a scale of 0-100% in comparison to an untreated comparative group: 0%=no noticeable effect compared to the untreated comparative group; 100%=full effect compared to the untreated comparative group.
(§3) (notes: the term “seeds” also includes vegetative propagation forms such as, for example, rhizome pieces; abbreviations used: h light=hours of illumination, g of AS/ha=gram of active substance per hectare, l/ha=liter per hectare, S=sensitive, R=resistant) • 1. Pre-emergence action against weeds: seeds of various broad-leaved weed and weed grass biotypes (origins) were sown in a 8-13 cm diameter pot filled with natural soil of a standard field soil (loamy silt; non-sterile) and covered with a covering soil layer of about 1 cm. The pots were then cultivated in a greenhouse (12-16 h of light, temperature day 20-22° C., night 15-18° C.) until the time of application. The pots were treated at the BBCH stage 00-10 of the seeds/plants on a laboratory track sprayer with spray liquors comprising the compositions according to the invention, mixtures or components used individually, as WG, WP, EC or other formulations. The application rate for the spray application was 100-600 l of water/ha. After the treatment, the plants were returned to the greenhouses and, when required, treated with fertilizer and watered. • 2. Post-emergence action against weeds: seeds of various broad-leaved weed and weed grass biotypes (origins) were sown in a 8-13 cm diameter pot filled with natural soil of a standard field soil (loamy silt; non-sterile) and covered with a covering soil layer of about 1 cm. The pots were then cultivated in a greenhouse (12-16 h of light, temperature day 20-22° C., night 15-18° C.) until the time of application. The pots were treated at various BBCH stages between 11-25 of the seeds/plants, i.e. generally between two to three weeks after the start of the cultivation, on a laboratory track sprayer with spray liquors comprising the compositions according to the invention, mixtures or components used individually, as WG, WP, EC or other formulations. The application rate for the spray application was 100-600 l of water/ha. After the treatment, the plants were returned to the greenhouses and, when required, treated with fertilizer and watered. • 3. […]

VIOAR (Viola arvensis) = test: as above; conditions: PO application; g of AS/ha: (A) 240, (B) 1200, (C) 140, (A)+(B)+(C) 240 + 1200 + 140
Procedure: as §1, §2, §3

[1] = system: HORVS (Hordeum vulgare, summer barley); test: Selective post-emergence action (crop compatibility), greenhouse trial, test method 4; conditions: PO application; g of AS/ha: (A) 240, (B) 1200, (C) 140, (A)+(B)+(C) 240 + 1200 + 140
Procedure: as §1, §2
(notes: the term “seeds” also includes vegetative propagation forms such as, for example, rhizome pieces; abbreviations used: h light=hours of illumination, g of AS/ha=gram of active substance per hectare, l/ha=liter per hectare, S=sensitive, R=resistant) • 1. Pre-emergence action against weeds: seeds of various broad-leaved weed and weed grass biotypes (origins) were sown in a 8-13 cm diameter pot filled with natural soil of a standard field soil (loamy silt; non-sterile) and covered with a covering soil layer of about 1 cm. The pots were then cultivated in a greenhouse (12-16 h of light, temperature day 20-22° C., night 15-18° C.) until the time of application. […]

LOLPE (Lolium perenne) [2] = test: Pre-sowing application action against weeds (7 days prior to sowing), test method 5; conditions: application 7 days prior to sowing; g of AS/ha: (A) 90, (B) 1200, (C) 140, (A)+(B)+(C) 90 + 1200 + 140
Procedure: as §1, §2
(notes: the term “seeds” also includes vegetative propagation forms such as, for example, rhizome pieces; abbreviations used: h light=hours of illumination, g of AS/ha=gram of active substance per hectare, l/ha=liter per hectare, S=sensitive, R=resistant) • 1. Pre-emergence action against weeds: seeds of various broad-leaved weed and weed grass biotypes (origins) were sown in a 8-13 cm diameter pot filled with natural soil of a standard field soil (loamy silt; non-sterile) and covered with a covering soil layer of about 1 cm. The pots were then cultivated in a greenhouse (12-16 h of light, temperature day 20-22° C., night 15-18° C.) until the time of application. The pots were treated at the BBCH stage 00-10 of the seeds/plants on a laboratory track sprayer with spray liquors comprising the compositions according to the invention, mixtures or components used individually, as WG, WP, EC or other formulations. The application rate for the spray application was 100-600 l of water/ha. After the treatment, the plants were returned to the greenhouses and, when required, treated with fertilizer and watered. • 2. Post-emergence action against weeds: seeds of various broad-leaved weed and weed grass biotypes (origins) were sown in a 8-13 cm diameter pot filled with natural soil of a standard field soil (loamy silt; non-sterile) and covered with a covering soil layer of about 1 cm. The pots were then cultivated in a greenhouse (12-16 h of light, temperature day 20-22° C., night 15-18° C.) until the time of application. […]

LOLPE (Lolium perenne) [3] = test: PE action under various irrigation conditions, test method 6; conditions: PE application, g of AS/ha: (A) 90, (B) 1200, (C) 140, (A)+(B)+(C) 90 + 1200 + 140
Procedure: as §1, §2
(§4) (notes: the term “seeds” also includes vegetative propagation forms such as, for example, rhizome pieces; abbreviations used: h light=hours of illumination, g of AS/ha=gram of active substance per hectare, l/ha=liter per hectare, S=sensitive, R=resistant) • 1. Pre-emergence action against weeds: seeds of various broad-leaved weed and weed grass biotypes (origins) were sown in a 8-13 cm diameter pot filled with natural soil of a standard field soil (loamy silt; non-sterile) and covered with a covering soil layer of about 1 cm. The pots were then cultivated in a greenhouse (12-16 h of light, temperature day 20-22° C., night 15-18° C.) until the time of application. The pots were treated at the BBCH stage 00-10 of the seeds/plants on a laboratory track sprayer with spray liquors comprising the compositions according to the invention, mixtures or components used individually, as WG, WP, EC or other formulations. The application rate for the spray application was 100-600 l of water/ha. After the treatment, the plants were returned to the greenhouses and, when required, treated with fertilizer and watered. • 2. Post-emergence action against weeds: seeds of various broad-leaved weed and weed grass biotypes (origins) were sown in a 8-13 cm diameter pot filled with natural soil of a standard field soil (loamy silt; non-sterile) and covered with a covering soil layer of about 1 cm. The pots were then cultivated in a greenhouse (12-16 h of light, temperature day 20-22° C., night 15-18° C.) until the time of application. The pots were treated at various BBCH stages between 11-25 of the seeds/plants, i.e. generally between two to three weeks after the start of the cultivation, on a laboratory track sprayer with spray liquors comprising the compositions according to the invention, mixtures or components used individually, as WG, WP, EC or other formulations. The application rate for the spray application was 100-600 l of water/ha. After the treatment, the plants were returned to the greenhouses and, when required, treated with fertilizer and watered. • 3. Selective pre-emergence action: seeds of various crop species (origins) were sown in a 8-13 cm diameter pot filled with natural soil of a standard field soil (loamy silt; non-sterile) and covered with a covering soil layer of about 1 cm. The pots were then cultivated in a greenhouse (12-16 h of light, temperature day 20-22° C., night 15-18° C.) until the time of application. The pots were treated at the BBCH stage 00-10 of the seeds/plants on a laboratory track sprayer with spray liquors comprising the compositions according to the invention, mixtures or components used individually, as WG, WP, EC or other formulations. The application rate for the spray application was 100-600 l of water/ha. […]

[4] = system: MATCH (Matricaria chamomilla); test: as above; conditions: PE application; irrigation from below; g of AS/ha: (A) 90, (B) 1200, (C) 140, (A)+(B)+(C) 90 + 1200 + 140
Procedure: as §1, §2, §4

[5] = system: MATCH (Matricaria chamomilla); test: Action under various soil conditions (soil types), test method 7; conditions: g of AS/ha: (A) 90, (B) 1200, (C) 140, (A)+(B)+(C) 90 + 1200 + 140
Procedure: as §1, §2, §4

STEME (Stellaria media) = test: as above; conditions: IU/EC73 soil versus IU soil; g of AS/ha: (A) 90, (B) 1200, (C) 140, (A)+(B)+(C) 90 + 1200 + 140
Procedure: as §1, §2, §4

[6] = system: HORVS (Hordeum vulgare, summer barley); test: Action under various soil conditions (soil types), test method 7, crop compatibility; conditions: g of AS/ha: (A) 90, (B) 1200, (C) 140, (A)+(B)+(C) 90 + 1200 + 140
Procedure: as §1, §2, §3

[7] = system: ALOMY resistant (Alopecurus myosuroides); test: PE action on resistant weed biotypes, test method 8; conditions: PE application; g of AS/ha: (A) 90, (B) 1200, (C) 140, (A)+(B)+(C) 90 + 1200 + 140, iodosulfuron 10
Procedure: as §1, §2, §4

[8] = system: ALOMY sensitive (Alopecurus myosuroides); test: as above; conditions: PE application; g of AS/ha: (A) 90, (B) 1200, (C) 140, (A)+(B)+(C) 90 + 1200 + 140, iodosulfuron 10
Procedure: as §1, §2, §4

AVEFA (Avena fatua) = test: PE action at different soil pH values, test method 10; conditions: PE application, g of AS/ha: (A) 90, (B) 1200, (C) 140, (A)+(B)+(C) 90 + 1200 + 140
Procedure: as §1, §2

| Compound | activity POAAN (visual, scale 0-100%) (POAAN (Poa annua)) | activity VIOAR (visual, scale 0-100%) (VIOAR (Viola arvensis)) | activity HORVS (crop plant; visual, scale 0-100%) [1] | activity LOLPE (LOLPE (Lolium perenne) [2]) | activity LOLPE (LOLPE (Lolium perenne) [3]; irrigation from above) | activity LOLPE (LOLPE (Lolium perenne) [3]; irrigation from below) | activity MATCH [4] | activity MATCH IU soil ([5]; IU soil) | Difference of the soil types, MATCH ([5]; IU/EC73 soil versus IU soil) | activity MATCH IU/EC73 soil ([5]; IU/EC73 soil) | Difference of the soil types, STEME (STEME (Stellaria media)) | activity HORVS IU soil (crop plant) ([6]; IU soil) | Difference of the soil types, HORVS ([6]; IU/EC73 soil versus IU soil) | activity ALOMY resistant [7] | activity ALOMY sensitive [8] | activity AVEFA pH 7.4 (AVEFA (Avena fatua); soil pH 7.4) | activity AVEFA pH 8.4 (AVEFA (Avena fatua); soil pH 8.4) |
| --- | --- | --- | --- | --- | --- | --- | --- | --- | --- | --- | --- | --- | --- | --- | --- | --- | --- |
| CSc1nnc(C(C)(C)C)c(=O)n1N [(C) metribuzin, 4-amino-6-(1,1-dimethylethyl)-3-(methylthio)-1,2,4-triazin-5(4H)-one] | 79% | 90% | 70% | 100% | 55% | 48% | 60% | 0% | +15% | 15% | −70% | 20% | −20% | 80% | 85% | 90% | 90% |
| COc1nc(C)nc(NC(=O)NS(=O)(=O)c2cc(I)ccc2C(=O)O)n1 [(C)^1 iodosulfuron, iodosulfuron] |  |  |  |  |  |  |  |  |  |  |  |  |  | 40% | 90% |  |  |
